Assay results published in US20090304692A1, “TRIAZINE COMPOUNDS AS PI3 KINASE AND MTOR INHIBITORS” (Wyeth, priority 2008, published 2009).
Values joined by “and” are separate entries in the source; they are usually repeats but may differ in a detail not shown here. Equal entries are not always repeated. Where two headings read alike, the source gives them in different places.

Tests used:
Human mTOR (FLAG-TOR) = Human mTOR (FLAG-TOR) (Homo sapiens, UniProt P42345); experiment: mTOR kinase assay (DELFIA format, purified enzyme); type: biochemical; conditions: read-out: IC50 mTOR
Human mTOR (FLAG-TOR), sequence (P42345 1360-2549 limits assumed): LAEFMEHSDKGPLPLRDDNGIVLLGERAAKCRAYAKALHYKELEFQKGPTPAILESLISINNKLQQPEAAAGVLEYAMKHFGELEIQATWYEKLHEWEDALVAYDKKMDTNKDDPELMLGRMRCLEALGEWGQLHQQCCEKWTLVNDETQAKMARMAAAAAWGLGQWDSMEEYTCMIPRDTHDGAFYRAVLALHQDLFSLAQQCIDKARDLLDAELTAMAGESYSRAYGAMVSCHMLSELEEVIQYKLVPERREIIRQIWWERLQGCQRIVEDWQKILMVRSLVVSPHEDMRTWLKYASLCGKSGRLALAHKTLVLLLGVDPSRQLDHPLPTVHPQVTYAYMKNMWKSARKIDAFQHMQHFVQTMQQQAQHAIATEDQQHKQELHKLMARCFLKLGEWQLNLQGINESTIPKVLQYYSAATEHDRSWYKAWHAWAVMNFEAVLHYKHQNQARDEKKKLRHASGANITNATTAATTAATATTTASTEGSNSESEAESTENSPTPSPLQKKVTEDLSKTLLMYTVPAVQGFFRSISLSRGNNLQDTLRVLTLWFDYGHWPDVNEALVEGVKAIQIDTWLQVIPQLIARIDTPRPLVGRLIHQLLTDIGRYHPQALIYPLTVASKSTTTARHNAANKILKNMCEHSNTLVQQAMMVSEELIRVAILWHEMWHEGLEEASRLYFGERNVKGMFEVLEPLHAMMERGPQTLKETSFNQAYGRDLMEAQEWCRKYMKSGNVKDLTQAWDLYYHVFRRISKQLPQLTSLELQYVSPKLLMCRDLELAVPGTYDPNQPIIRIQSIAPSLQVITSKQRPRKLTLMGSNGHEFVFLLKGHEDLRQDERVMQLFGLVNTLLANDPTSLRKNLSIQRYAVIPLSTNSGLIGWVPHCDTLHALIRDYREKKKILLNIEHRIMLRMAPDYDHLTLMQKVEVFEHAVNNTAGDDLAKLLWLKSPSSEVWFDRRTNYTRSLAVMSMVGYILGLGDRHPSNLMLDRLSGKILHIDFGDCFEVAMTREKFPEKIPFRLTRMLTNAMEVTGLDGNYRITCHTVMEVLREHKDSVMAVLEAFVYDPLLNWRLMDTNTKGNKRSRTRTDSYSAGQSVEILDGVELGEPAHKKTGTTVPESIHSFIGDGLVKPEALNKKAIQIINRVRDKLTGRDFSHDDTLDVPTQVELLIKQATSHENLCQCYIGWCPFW

PI3K-α = PI3K-α (Homo sapiens, UniProt P42336); experiment: PI3K-alpha fluorescence polarization assay; conditions: read-out: IC50 PI3Kα
PI3K-α, sequence (P42336 whole entry, species assumed): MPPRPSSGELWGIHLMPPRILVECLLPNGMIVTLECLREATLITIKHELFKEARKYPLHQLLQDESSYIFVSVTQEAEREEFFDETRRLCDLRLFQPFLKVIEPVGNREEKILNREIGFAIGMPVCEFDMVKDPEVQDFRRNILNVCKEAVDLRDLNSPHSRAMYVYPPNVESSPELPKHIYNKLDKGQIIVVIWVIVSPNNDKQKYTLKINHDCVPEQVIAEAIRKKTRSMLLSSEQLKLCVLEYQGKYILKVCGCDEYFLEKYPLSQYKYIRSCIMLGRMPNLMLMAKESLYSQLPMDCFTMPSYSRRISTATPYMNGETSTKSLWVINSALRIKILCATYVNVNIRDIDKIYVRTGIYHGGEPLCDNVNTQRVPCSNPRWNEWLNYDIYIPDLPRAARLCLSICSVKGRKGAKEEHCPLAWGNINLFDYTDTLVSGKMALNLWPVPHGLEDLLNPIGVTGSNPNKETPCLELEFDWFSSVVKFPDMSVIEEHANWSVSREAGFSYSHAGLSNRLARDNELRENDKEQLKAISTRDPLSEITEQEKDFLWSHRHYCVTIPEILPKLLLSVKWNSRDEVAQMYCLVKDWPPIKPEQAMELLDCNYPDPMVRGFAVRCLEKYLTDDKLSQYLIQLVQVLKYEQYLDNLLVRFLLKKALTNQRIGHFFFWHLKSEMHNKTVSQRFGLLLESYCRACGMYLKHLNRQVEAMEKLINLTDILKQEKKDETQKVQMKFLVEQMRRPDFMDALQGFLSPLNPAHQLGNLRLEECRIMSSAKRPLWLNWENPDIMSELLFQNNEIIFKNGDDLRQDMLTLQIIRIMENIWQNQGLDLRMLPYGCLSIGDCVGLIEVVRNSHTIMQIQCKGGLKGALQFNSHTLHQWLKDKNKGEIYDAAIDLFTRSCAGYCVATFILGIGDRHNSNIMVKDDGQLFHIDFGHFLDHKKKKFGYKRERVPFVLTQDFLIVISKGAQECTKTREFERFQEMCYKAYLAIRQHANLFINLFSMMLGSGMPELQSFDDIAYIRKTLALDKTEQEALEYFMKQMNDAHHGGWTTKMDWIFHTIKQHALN
PI3K-α, sequence (P27986 whole entry partner, species assumed): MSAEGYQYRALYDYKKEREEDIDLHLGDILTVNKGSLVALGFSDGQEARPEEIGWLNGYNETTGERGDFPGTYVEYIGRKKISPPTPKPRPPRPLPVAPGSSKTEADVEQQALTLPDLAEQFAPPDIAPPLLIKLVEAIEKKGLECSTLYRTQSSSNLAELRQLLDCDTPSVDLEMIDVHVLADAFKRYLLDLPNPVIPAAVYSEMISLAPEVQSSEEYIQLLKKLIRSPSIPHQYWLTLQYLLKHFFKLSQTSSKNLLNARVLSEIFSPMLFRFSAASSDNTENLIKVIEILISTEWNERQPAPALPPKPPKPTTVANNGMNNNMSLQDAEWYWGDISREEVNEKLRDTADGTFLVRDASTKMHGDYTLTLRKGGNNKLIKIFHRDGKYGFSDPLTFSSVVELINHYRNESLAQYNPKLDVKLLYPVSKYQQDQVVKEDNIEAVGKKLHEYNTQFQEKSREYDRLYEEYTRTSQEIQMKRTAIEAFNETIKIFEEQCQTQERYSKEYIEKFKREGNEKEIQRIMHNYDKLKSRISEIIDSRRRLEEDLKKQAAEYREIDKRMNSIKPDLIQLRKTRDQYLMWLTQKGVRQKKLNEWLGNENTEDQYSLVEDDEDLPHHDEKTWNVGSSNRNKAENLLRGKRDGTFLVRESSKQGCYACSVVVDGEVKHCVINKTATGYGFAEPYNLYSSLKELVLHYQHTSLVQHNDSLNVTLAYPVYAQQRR

PI3K-γ = PI3K-γ (Homo sapiens, UniProt P48736); experiment: PI3K-gamma fluorescence polarization assay; conditions: read-out: IC50 PI3Kγ
PI3K-γ, sequence (P48736 whole entry, species assumed): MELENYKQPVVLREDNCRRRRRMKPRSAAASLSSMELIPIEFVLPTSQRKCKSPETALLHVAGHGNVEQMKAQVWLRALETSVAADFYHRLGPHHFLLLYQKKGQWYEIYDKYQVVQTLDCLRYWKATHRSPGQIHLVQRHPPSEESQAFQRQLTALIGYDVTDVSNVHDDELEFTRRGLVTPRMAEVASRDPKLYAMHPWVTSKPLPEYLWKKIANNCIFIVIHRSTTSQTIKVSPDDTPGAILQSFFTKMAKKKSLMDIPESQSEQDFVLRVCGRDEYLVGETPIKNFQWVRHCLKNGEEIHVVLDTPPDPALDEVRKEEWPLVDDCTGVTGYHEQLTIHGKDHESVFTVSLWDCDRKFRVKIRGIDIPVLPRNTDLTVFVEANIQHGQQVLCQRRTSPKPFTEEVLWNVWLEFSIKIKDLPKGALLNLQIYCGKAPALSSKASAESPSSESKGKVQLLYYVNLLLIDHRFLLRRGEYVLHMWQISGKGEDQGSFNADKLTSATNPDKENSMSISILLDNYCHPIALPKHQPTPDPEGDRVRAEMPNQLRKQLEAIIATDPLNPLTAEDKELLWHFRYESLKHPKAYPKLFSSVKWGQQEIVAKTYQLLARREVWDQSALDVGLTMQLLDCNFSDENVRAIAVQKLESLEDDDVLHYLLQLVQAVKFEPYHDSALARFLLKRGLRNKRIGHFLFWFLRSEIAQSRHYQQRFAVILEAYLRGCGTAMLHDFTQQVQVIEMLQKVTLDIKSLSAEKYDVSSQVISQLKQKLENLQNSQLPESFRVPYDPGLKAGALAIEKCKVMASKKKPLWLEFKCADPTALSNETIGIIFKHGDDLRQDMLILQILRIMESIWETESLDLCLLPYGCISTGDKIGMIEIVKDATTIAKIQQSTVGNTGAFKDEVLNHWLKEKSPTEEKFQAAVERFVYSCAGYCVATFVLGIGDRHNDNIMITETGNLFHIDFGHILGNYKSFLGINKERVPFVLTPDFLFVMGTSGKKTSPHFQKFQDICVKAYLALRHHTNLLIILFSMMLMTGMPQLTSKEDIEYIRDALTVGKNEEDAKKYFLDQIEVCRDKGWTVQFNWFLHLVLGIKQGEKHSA

IC50 (Human mTOR (FLAG-TOR)) | IC50 (PI3K-α) | IC50 (PI3K-γ) | IC50 (PI3K-γ; listed as 530) | Molecule | IC50 (PI3K-α; listed as 828)
140 nM | 761 nM | 2080 nM | – | Cc1ccc(-c2nc(-c3ccc(NC(=O)Nc4cccc(C(=O)N5CCN(C)CC5)c4)cc3)nc(N3CCOCC3)n2)cc1 [Example 576, 1-{4-[4-(4-methylphenyl)-6-morpholin-4-yl-1,3,5-triazin-2-yl]phenyl}-3-{3-[(4-methylpiperazin-1-yl)carbonyl]phenyl}urea] | –
59 nM | 870 nM | 1160 nM | – | COC(=O)c1ccc(NC(=O)Nc2ccc(-c3nc(NS(=O)(=O)c4ccccc4)nc(N4CCOCC4)n3)cc2)cc1 [Example 789, methyl 4-{[(4-{4-morpholin-4-yl-6-[(phenylsulfonyl)amino]-1,3,5-triazin-2-yl}phenyl)carbamoyl]amino}benzoate] | –
46 nM and 49.5 nM | 92 nM | 706 nM | 706 nM | Cc1ccc(-c2nc(-c3ccc(NC(=O)Nc4ccncc4)cc3)nc(N3CCOCC3)n2)cc1 [Example 340, 1-{4-[4-(4-methylphenyl)-6-morpholin-4-yl-1,3,5-triazin-2-yl]phenyl}-3-pyridin-4-ylurea] | –
2100 nM | 1350 nM | 9000 nM | – | CN1CCC(NC(=O)Nc2ccc(-c3nc(N4CCOCC4)nc(N4CCOCC4)n3)cc2)CC1 [Example 98, 1-[4-(4,6-dimorpholin-4-yl-1,3,5-triazin-2-yl)phenyl]-3-(1-methylpiperidin-4-yl)urea] | –
23 nM | 10 nM | 495 nM | – | COC(=O)c1ccc(NC(=O)Nc2ccc(-c3nc(C)nc(N4CCOCC4)n3)cc2)cc1 [Example 162, methyl 4-({[4-(4-methyl-6-morpholin-4-yl-1,3,5-triazin-2-yl)phenyl]carbamoyl}amino)benzoate] | –
1.9 nM | 287 nM | 1640 nM | – | C[C@@H]1COCCN1c1nc(-c2ccc(NC(=O)Nc3ccc(N4CCC(N(C)C)CC4)cc3)cc2)nc(N2CCOC[C@H]2C)n1 [Example 449, 1-(4-(4,6-bis((R)-3-methylmorpholino)-1,3,5-triazin-2-yl)phenyl)-3-(4-(4-(dimethylamino)piperidin-1-yl)phenyl)urea] | –
120 nM | 105 nM | 230 nM | – | CCCC1CCN(C(=O)c2ccc(NC(=O)Nc3ccc(-c4nc(N5CCOCC5)nc(N5CCN(C(=O)N(C)C)CC5)n4)cc3)cc2)CC1 [Example 645, N,N-dimethyl-4-(4-morpholin-4-yl-6-{4-[({4-[(4-propylpiperidin-1-yl)carbonyl]phenyl}carbamoyl)amino]phenyl}-1,3,5-triazin-2-yl)piperazine-1-carboxamide] | –
770 nM | 34.3 nM | 197 nM | – | CCN1CCN(C(=O)c2ccc(NC(=O)Nc3ccc(-c4nc(N5CCOCC5)nc(N5CCCN(C(C)C)CC5)n4)cc3)cc2)CC1 [Example 662, 1-{4-[(4-ethylpiperazin-1-yl)carbonyl]phenyl}-3-(4-{4-[4-(1-methylethyl)-1,4-diazepan-1-yl]-6-morpholin-4-yl-1,3,5-triazin-2-yl}phenyl)urea] | –
8 nM | 45.5 nM | 162 nM | – | O=C(Nc1ccncc1)Nc1ccc(-c2nc(N3CCCC3)nc(N3CCOCC3)n2)cc1 [Example 600, 1-[4-(4-morpholin-4-yl-6-pyrrolidin-1-yl-1,3,5-triazin-2-yl)phenyl]-3-pyridin-4-ylurea] | –
33 nM | 250 nM | 726 nM | – | COC(=O)c1ccc(NC(=O)Nc2ccc(-c3nc(N4CCCCC4)nc(N4CCOCC4)n3)cc2)cc1 [Example 591, methyl 4-({[4-(4-morpholin-4-yl-6-piperidin-1-yl-1,3,5-triazin-2-yl)phenyl]carbamoyl}amino)benzoate] | –
150 nM and 145 nM | 97 nM | 166 nM | – | O=C(Nc1ccncc1)Nc1ccc(-c2nc(N3CCOCC3)nc(N3CC4CNCC(C3)O4)n2)cc1 [Example 290, 1-{4-[4-morpholin-4-yl-6-(9-oxa-3,7-diazabicyclo[3.3.1]non-3-yl)-1,3,5-triazin-2-yl]phenyl}-3-pyridin-4-ylurea] | –
49 nM | 343 nM | 404 nM | – | O=C(Nc1ccc(-c2nc(-c3ccccc3)nc(N3CCOCC3)n2)cc1)Nc1cccc(C(=O)O)c1 [Example 590, 3-({[4-(4-morpholin-4-yl-6-phenyl-1,3,5-triazin-2-yl)phenyl]carbamoyl}amino)benzoic acid] | –
0.16 nM | 173 nM | 2070 nM | – | C[C@@H]1COCCN1c1nc(-c2ccc(NC(=O)Nc3ccncc3)cc2)nc(N2CCOC[C@H]2C)n1 [Example 397, 1-(4-(4,6-bis((R)-3-methylmorpholino)-1,3,5-triazin-2-yl)phenyl)-3-(pyridin-4-yl)urea] | –
54 nM | 524 nM | 2250 nM | – | CCc1nc(-c2ccc(NC(=O)Nc3cccc(C(=O)N(C)CCN(C)C)c3)cc2)nc(N2CCOCC2)n1 [Example 588, N-[2-(dimethylamino)ethyl]-3-({[4-(4-ethyl-6-morpholin-4-yl-1,3,5-triazin-2-yl)phenyl]carbamoyl}amino)-N-methylbenzamide] | –
2100 nM | 2410 nM | 2510 nM | – | COC(=O)c1cccc(NC(=O)Nc2ccc(-c3nc(-c4ccc(C)cc4)nc(N4CCOCC4)n3)cc2)c1 [Example 578, methyl 3-[({4-[4-(4-methylphenyl)-6-morpholin-4-yl-1,3,5-triazin-2-yl]phenyl}carbamoyl)amino]benzoate] | –
50 nM | 205 nM | 1580 nM | – | O=C(Nc1ccc(-c2nc(N3CCOCC3)nc(N3CCOCC3)n2)cc1)Nc1ccc(C(F)(F)F)cn1 [Example 55, 1-[4-(4,6-dimorpholin-4-yl-1,3,5-triazin-2-yl)phenyl]-3-[5-(trifluoromethyl)pyridin-2-yl]urea] | –
19 nM | 73 nM | 651 nM | – | COC(=O)c1ccc(NC(=O)Nc2ccc(-c3nc(N4CCOCC4)nc(N4CCC(NC(C)=O)CC4)n3)cc2)cc1 [Example 656, methyl 4-{[(4-{4-[4-(acetylamino)piperidin-1-yl]-6-morpholin-4-yl-1,3,5-triazin-2-yl}phenyl)carbamoyl]amino}benzoate] | –

Molecule | IC50 (Human mTOR (FLAG-TOR)) | IC50 (PI3K-α) | IC50 (PI3K-γ) | IC50 (PI3K-γ; listed as 530) | IC50 (PI3K-α; listed as 828)
C[C@H]1COCCN1c1nc(-c2ccc(NC(=O)Nc3ccc(C(=O)N4CC[C@H](N(C)C)C4)cc3)cc2)nc(N2C3CCC2COC3)n1 [Example 834, 1-(4-{[(3S)-3-(dimethylamino)pyrrolidin-1-yl]carbonyl}phenyl)-3-(4-{4-[(3S)-3-methylmorpholin-4-yl]-6-(3-oxa-8-azabicyclo[3.2.1]oct-8-yl)-1,3,5-triazin-2-yl}phenyl)urea] | 680 nM | 4.8 nM | 86.5 nM | – | –
C[C@H]1COCCN1c1nc(-c2ccc(NC(=O)Nc3ccc(C(=O)N(C)CCN(C)C)cc3)cc2)nc(N2C3CCC2COC3)n1 [Example 831, N-[2-(dimethylamino)ethyl]-N-methyl-4-{[(4-{4-[(3S)-3-methylmorpholin-4-yl]-6-(3-oxa-8-azabicyclo[3.2.1]oct-8-yl)-1,3,5-triazin-2-yl}phenyl)carbamoyl]amino}benzamide] | 265 nM | 3.3 nM | 87.5 nM | – | –
N-[2-(dimethylamino)ethyl]-N-methyl-4-[({4-[4-morpholin-4-yl-6-(tetrahydro-2H-pyran-4-yl)-1,3,5-triazin-2-yl]phenyl}carbamoyl)amino]benzamide [Example 524] | 0.26 nM | 0.8 nM | 10 nM | – | –
1-(4-(4-(3-oxa-8-azabicyclo[3.2.1]octan-8-yl)-6-(piperidin-4-ylamino)-1,3,5-triazin-2-yl)phenyl)-3-ethylurea [Example 363] | 0.77 nM | 1100 nM | 7140 nM | – | –
CN(C)[C@@H]1CCN(C(=O)c2ccc(NC(=O)Nc3ccc(-c4nc(N5CCOCC5)nc(N5C6CCC5COC6)n4)cc3)cc2)C1 [Example 825, 1-(4-{[(3R)-3-(dimethylamino)pyrrolidin-1-yl]carbonyl}phenyl)-3-{4-[4-morpholin-4-yl-6-(3-oxa-8-azabicyclo[3.2.1]oct-8-yl)-1,3,5-triazin-2-yl]phenyl}urea] | 185 nM | 2 nM | 13 nM | – | 2.05 nM
CCN1CCN(C(=O)c2ccc(NC(=O)Nc3ccc(-c4nc(N5C6CCC5COC6)nc(N5CCOC[C@@H]5C)n4)cc3)cc2)CC1 [Example 836, 1-{4-[(4-ethylpiperazin-1-yl)carbonyl]phenyl}-3-(4-{4-[(3S)-3-methylmorpholin-4-yl]-6-(3-oxa-8-azabicyclo[3.2.1]oct-8-yl)-1,3,5-triazin-2-yl}phenyl)urea] | 665 nM | 5.1 nM | 41 nM | – | –
O=C(Nc1ccc(C(=O)N2CCS(=O)(=O)CC2)cc1)Nc1ccc(-c2nc(N3CCOCC3)nc(N3C4CCC3COC4)n2)cc1 [Example 822, 1-{4-[(1,1-dioxidothiomorpholin-4-yl)carbonyl]phenyl}-3-{4-[4-morpholin-4-yl-6-(3-oxa-8-azabicyclo[3.2.1]oct-8-yl)-1,3,5-triazin-2-yl]phenyl}urea] | 0.335 nM | 3 nM | 31.5 nM | – | –
O=C(NCCO)Nc1ccc(-c2nc(N3CCOCC3)nc(N3C4CCC3COC4)n2)cc1 [Example 45, 1-(2-hydroxyethyl)-3-{4-[4-morpholin-4-yl-6-(3-oxa-8-azabicyclo[3.2.1]oct-8-yl)-1,3,5-triazin-2-yl]phenyl}urea] | 3.6 nM | 504 nM | 2080 nM | – | –
C[C@H]1COCCN1c1nc(-c2ccc(NC(=O)Nc3ccncc3)cc2)nc(N2C3CCC2COC3)n1 [Example 829, 1-(4-{4-[(3S)-3-methylmorpholin-4-yl]-6-(3-oxa-8-azabicyclo[3.2.1]oct-8-yl)-1,3,5-triazin-2-yl}phenyl)-3-pyridin-4-ylurea] | 520 nM | 10.5 nM | 188 nM | – | –
